From patent publication US20220177490A1, “COMPOUNDS HAVING BOTH EFFECTS OF BET BROMODOMAIN PROTEIN INHIBITION AND PD-L1 GENE REGULATION” (priority 2019, published 2022)
Where two headings read alike, the source gives them in different places.

What was measured:
BRD4-1 (BRD4 BD1) = molecular target: T1, BRD4-1 (BRD4 BD1) (Homo sapiens, UniProt O60885); experiment: AlphaScreen binding assay of BRD4 biochemical activity (BD1); settings: BD1, first value of cell; 10 concentrations, single well, initial 10 μM, 3-fold dilution
T1 construct: BRD4 (BD1, BD2)
Experimental: (§1) Test 1: IC50 characterization of the compounds at 10 concentrations.
(§2) The compounds were evaluated for IC50 against two BRD (BRD4-1, BRD4-2) at 10 concentrations, single well.
(§3) Buffer composition for BRD: 50 mM HEPES-HCl, pH7.5, 100 mM NaCl, 0.1% BSA, 0.05% CHAPS, and 1% DMSO.
(§4) Assay: AlphaScreen binding assay (Ex/Em=680/520-620 nm)
(§5) 2.1 4×BRD was added into wells of a reaction plate, except for control wells without BRD, in which BRD was replaced with a buffer.
(§6) 2.2 A solution of the compounds in 100% DMSO was added to the BRD mixture using Acoustic Technology (Echo550, nanoliter level). The mixture was centrifuged, shaken gently at room temperature, and pre-incubated for 30 minutes.
(§7) 2.3 4× ligand was added, and the mixture was centrifuged and shaken.
(§8) 2.4 The mixture was shaken gently and incubated at room temperature for 30 minutes.
(§9) 2.5 4× donor beads were added in the dark, and the mixture was centrifuged and shaken.
(§10) 2.6 4× acceptor beads were added in the dark, and the mixture was centrifuged and shaken gently in the dark for 60 minutes.
(§11) 2.7 The Alpha assay was carried out using Enspire (Ex/Em=680/520-620 nm)
(§12) The four-parameter fitting was performed by GraphPadPrism4 software using the following formula to obtain an IC50 fitting curve:
(§13) Y=minimum+(maximum−minimum)/(1+10^((Log IC50−X)*HillSplope))
(§14) Prism settings: 4-parameter dose-response curve (with variable slope), constrained; minimum=0, maximum=less than 120

BRD4-2 (BRD4 BD2) = molecular target: T2, BRD4-2 (BRD4 BD2) (Homo sapiens, UniProt O60885); experiment: AlphaScreen binding assay of BRD4 biochemical activity (BD2); settings: BD2, second value of cell; 10 concentrations, single well, initial 10 μM, 3-fold dilution
T2 construct: BRD4 (BD1, BD2)
Experimental: as §1, §2, §3, §4, §5, §6, §7, §8, §9, §10, §11, §12, §13, §14

[1] = Pharmacokinetic study in male CD-1 mice, LC/MS/MS of plasma; assay type: in vivo; settings: mouse; for Vd: read-out: Apparent volume of distribution Vdss; for AUC(0-inf): read-out: Area under curve (0-inf) AUC0-inf; for AUC(0-t): read-out: Area under curve (0-t) AUC0-last; for clearance: read-out: Clearance rate Cl; for half-life: read-out: Half life period T½ (converted); for Cmax: read-out: Drug concentration in blood Cmax; for Tmax: read-out: Peak arrival time Tmax; for bioavailability: read-out: bioavailability F
Experimental: 1.1 Male CD-1 mice were used as test animals, and the LC/MS/MS method was used to determine the drug concentration in plasma of mice at different times after intravenous and intragastric administration of the test compounds. The pharmacokinetic behavior of the compounds of the present disclosure in mice was studied, and the pharmacokinetic characteristics of the compounds of the present disclosure were evaluated.
2.2 Assay animals: Eight healthy adult male CD-1 mice, which were divided into four groups (two for each group) according to the principle of similar body weight. The animals were purchased from Shanghai Sippe-Bk Lab Animal Co., Ltd., with animal production license No. of SCXK (Shanghai) 2018-0006.
A proper amount of samples were weighed, to which a solvent was added. The mixture was stirred with ultrasound to a clear state for intravenous administration.
A proper amount of samples were weighed, to which a solvent was added. The mixture was stirred with ultrasound to a clear state for intragastric administration.
Eight male CD-1 mice were divided into four groups. After one-night fasting, two groups were administered intravenously, and the remaining two groups were administered intragastrically.
After intravenous administration of the test compounds to male CD-1 mice, […] of blood was collected at 0.0833, 0.25, 0.5, 1, 2, 4, 8, and 24 hours, and placed in commercial tubes containing EDTA-K2. After intragastric administration of the test compounds, […] of blood was collected at 0.25, 0.5, 1, 2, 4, 6, 8, and 24 hours, and placed in commercial tubes containing EDTA-K2. The tubes were centrifuged at 3000 g for 15 minutes to separate plasma and stored at −60° C. Animals were fed 2 hours after the administration.
The LC/MS/MS method was used to determine the content of the test compounds in the plasma of mice after intravenous and intragastric administration. The linear range of the method was 2.00-6000 nmol/L; The plasma samples were analyzed after protein precipitation with acetonitrile.

[2] = system: Mouse colon cancer MC38 cells; experiment: In vivo efficacy in transplanted tumor model of MC38 mouse colon cancer cells; settings: C57BL/6 mice, 18 days of administration
Experimental: Mouse colon cancer MC38 cells (Art. No. HYC3401) were cultured in vitro in single layer under the conditions of DMEM containing 10% fetal bovine serum and 37° C. 5% CO2 incubator. Trypsin-EDTA was used for routine digestion and passage. When the cells were in exponential growth phase and the saturation was 80%-90%, the cells were collected and counted.
Cells were re-suspended in DPBS at a density of […]. 0.1 mL DPBS (containing 2×10^5 MC38 cells) was subcutaneously inoculated into the right back of each mouse. When average tumor volume reached ˜63 mm^3, mice were randomly grouped and administered according to tumor volume.
Tumor diameter was measured with vernier caliper three times a week. The calculation formula of tumor volume was as follows: V=0.5×a×b^2, wherein a and b indicated the long and short diameters of a tumor, respectively.
The anti-tumor effect of the compounds was evaluated using TGI (%) or relative tumor proliferation rate T/C (%). Relative tumor proliferation rate T/C (%)=TRTV;/CRTV×100 (TRTV: average RTV for treatment group; CRTV: average RTV for negative control group). According to the results of tumor measurement, relative tumor volume (RTV) was calculated using the formula: RTV=Vt/V0, wherein V0 is the tumor volume measured when grouped and administered (i.e., D0), Vt is the tumor volume at a certain measurement, and the data of TRTV and CRTV on the same day were used.
TGI (%) reflects the rate of tumor growth inhibition. TGI (%)=[(1−(Average tumor volume at the end of administration for a treatment group−Average tumor volume at the beginning of administration for the treatment group))/(Average tumor volume at the end of treatment for a vehicle control group-Average tumor volume at the beginning of treatment for the vehicle control group)]×100.
Statistical analysis was performed using SPSS software based on the relative tumor volume and tumor weight at the end of the test. T-test was used for comparison between two groups and one-way ANOVA was used for comparison among three or more groups. If variance was not neat (significant difference was found in F value), Games-Howell method was used for test. P<0.05 was considered a significant difference.

[3] = system: PAN02 mouse pancreatic cancer cell line; experiment: In vivo efficacy in PAN02 tumor model; settings: C57BL/6 mice, 30 mg/kg intragastrically, day 32
Experimental: The anti-tumor effect of the test compound was investigated on an in vivo tumor model of mouse pancreatic cancer PAN02.
Female C57BL/6 mice were subcutaneously inoculated with PAN02 mouse pancreatic cancer cell line, grouped according to body weight and tumor volume on the 8th day after inoculation, and administered as described below.
(§15) Group 1 (control group): Vehicle control was administered intragastrically at a dose of 0.1 mL/10 g body weight twice a day.
(§16) Group 2: Compound 4 dissolved in (5% DMSO+40% PEG 400+10% Solutol+45% DDH2O) was administered intragastrically at a dose of 30 mg/kg body weight.
During the assay, the body weight and tumor volume of mice were measured three times a week, and the tumor volume was calculated according to the formula of length×width^2/2. The tumor proliferation rate and tumor inhibition rate were calculated according to the formula: tumor proliferation rate=tumor volume of treatment group/tumor volume of control group×100%; tumor inhibition rate=(tumor volume of control group−tumor volume of treatment group)/tumor volume of control group.
(§17) Student's t-test was used for statistical analysis between groups, and p<0.05 indicated significant difference.

[4] = system: EMT-6 mouse breast cancer cell line; experiment: Anti-tumor activity in EMT-6 in vivo tumor model; settings: EMT-6 model, BALB/C mice, 30 mg/kg intragastrically
Experimental: The anti-tumor effect of the test compound was investigated on an in vivo tumor model of mouse breast cancer EMT-6.
Female BALB/C mice were subcutaneously inoculated with an EMT-6 mouse breast cancer cell line, grouped according to body weight and tumor volume on the 8th day after inoculation, and administered as described below.
as §15, §16
During the assay, the body weight and tumor volume of mice were measured three times a week, and the tumor volume was calculated according to the formula of length×width^2/2. The tumor proliferation rate and tumor inhibition rate were calculated according to the formula: tumor proliferation rate=tumor volume of treatment group/tumor volume of control group×100%; tumor inhibition rate=(tumor volume of control group-tumor volume of treatment group)/tumor volume of control group.
as §17

## Cc1sc2c(c1C)C(c1ccc(Cl)cc1)=N[C@@H](CC(=O)Nc1ccc3c(c1)CO/C3=N\O)c1nnc(C)n1-2 [Compound 1]
BRD4-1 (BRD4 BD1)
  IC50: 48.8 nM
BRD4-2 (BRD4 BD2)
  IC50: 7.4 nM

## Cc1sc2c(c1C)C(c1ccc(Cl)cc1)=N[C@@H](CC(=O)Nc1ccc3c(c1)CO/C3=N\C#N)c1nnc(C)n1-2 [Compound 2]
BRD4-1 (BRD4 BD1)
  IC50: 48.2 nM
BRD4-2 (BRD4 BD2)
  IC50: 6.23 nM

## Cc1sc2c(c1C)C(c1ccc(Cl)cc1)=N[C@@H](CC(=O)Nc1ccc3c(c1)CC1CON=C31)c1nnc(C)n1-2 (some centres unmarked) [Compound 3]
BRD4-1 (BRD4 BD1)
  IC50: 27 nM
BRD4-2 (BRD4 BD2)
  IC50: 4.45 nM

## CO/N=C1\OCc2cc(NC(=O)C[C@@H]3N=C(c4ccc(Cl)cc4)c4c(sc(C)c4C)-n4c(C)nnc43)ccc21 [Compound 4]
BRD4-1 (BRD4 BD1)
  IC50: 28 nM
BRD4-2 (BRD4 BD2)
  IC50: 6.6 nM
[1]; intravenous, 1 mg/kg
  Vd: 1.84 L/kg
  AUC(0-inf): 2.91 µM·h
  AUC(0-t): 2.71 µM·h
  clearance: 10.2 mL/min/kg
  half-life: 2.05 h
[1]; po, intragastric, 2 mg/kg
  AUC(0-t): 1.61 µM·h
  Cmax: 262 nM
  Tmax: 4 h
  bioavailability: 29.6%
[2]; 20 mpk p.o. BID
  TGI: 85.90%
[2]; 50 mpk p.o. BID
  TGI: 97.66%
[3]
  tumor proliferation rate: 37.61%
[4]; Day 19
  tumor proliferation rate: 23.92%
[4]; end of the assay
  tumor proliferation rate: 36.79%

## Cc1sc2c(c1C)C(c1ccc(Cl)cc1)=N[C@@H](CC(=O)Nc1ccc3c(c1)CO/C3=N\C1COC1)c1nnc(C)n1-2 [Compound 7]
BRD4-1 (BRD4 BD1)
  IC50: 28.7 nM
BRD4-2 (BRD4 BD2)
  IC50: 6.06 nM

## Cc1sc2c(c1C)C(c1ccc(Cl)cc1)=N[C@@H](CC(=O)Nc1ccc3c(c1)CO/C3=N\OC(C)C)c1nnc(C)n1-2 [Compound 8]
BRD4-1 (BRD4 BD1)
  IC50: 85.7 nM
BRD4-2 (BRD4 BD2)
  IC50: 15 nM

## CCO/N=C1\OCc2cc(NC(=O)C[C@@H]3N=C(c4ccc(Cl)cc4)c4c(sc(C)c4C)-n4c(C)nnc43)ccc21 [Compound 9]
BRD4-1 (BRD4 BD1)
  IC50: 43.6 nM
BRD4-2 (BRD4 BD2)
  IC50: 7 nM

## COCCO/N=C1\OCc2cc(NC(=O)C[C@@H]3N=C(c4ccc(Cl)cc4)c4c(sc(C)c4C)-n4c(C)nnc43)ccc21 [Compound 10]
BRD4-1 (BRD4 BD1)
  IC50: 27 nM
BRD4-2 (BRD4 BD2)
  IC50: 3.56 nM

## Cc1sc2c(c1C)C(c1ccc(Cl)cc1)=N[C@@H](CC(=O)Nc1ccc3c(c1)CO/C3=N\OC(F)F)c1nnc(C)n1-2 [Compound 11]
BRD4-1 (BRD4 BD1)
  IC50: 72.2 nM
BRD4-2 (BRD4 BD2)
  IC50: 3.92 nM
[1]; intravenous, 1 mg/kg
  Vd: 2.21 L/kg
  AUC(0-inf): 2.44 µM·h
  AUC(0-t): 2.26 µM·h
  clearance: 11.5 mL/min/kg
  half-life: 2.16 h
[1]; po, intragastric, 2 mg/kg
  AUC(0-t): 1.31 µM·h
  Cmax: 115 nM
  Tmax: 7 h
  bioavailability: 29%
[2]; 20 mpk p.o. BID
  TGI: 54.16%
[2]; 50 mpk p.o. BID
  TGI: 84.11%

## Cc1sc2c(c1C)C(c1ccc(Cl)cc1)=N[C@@H](CC(=O)Nc1ccc3c(c1)Cn1ccnc1-3)c1nnc(C)n1-2 [Compound 12]
BRD4-1 (BRD4 BD1)
  IC50: 18.1 nM
BRD4-2 (BRD4 BD2)
  IC50: 1.99 nM

## Cc1sc2c(c1C)C(c1ccc(Cl)cc1)=N[C@@H](CC(=O)Nc1ccc3c(c1)CO/C3=N\N(C)C)c1nnc(C)n1-2 [Compound 13]
BRD4-1 (BRD4 BD1)
  IC50: 13.1 nM
BRD4-2 (BRD4 BD2)
  IC50: 2.26 nM
